Reference: PubChem BioAssay AID330 (DTP/NCI, 2004)
Several values for one entry are separate records, joined by “and”; a condition that tells them apart may be missing. Identical values can stand only once. Toxic doses and inconclusive results are not listed. How the source made its calls: active means survival T/C of 150% or more; inactive means T/C below 125% in these data.

Tested on: P388 leukemia ip, CD2F1 mice, survival T/C
Experiment: NCI In Vivo Anticancer Drug Screen. Data for tumor model P388 Leukemia (intraperitoneal) in CD2F1 (CDF1) mice
Conditions: endpoint: median survival time, higher = longer survival
In short: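 Mice carrying the transplanted tumor received test compound or vehicle. Survival was recorded in each group, and the value is the treated-group measurement divided by that of the vehicle-treated control group.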

[1] = dose: 50.0 mg/kg/injection, schedule: Q01DX005 (ip), vehicle: saline with Tween-80
[2] = dose: 100.0 mg/kg/injection, schedule: Q01DX005 (ip), vehicle: saline with Tween-80
[3] = dose: 200.0 mg/kg/injection, schedule: Q01DX005 (ip), vehicle: saline with Tween-80
[4] = dose: 50.0 mg/kg/injection, schedule: Q01DX005 (ip), vehicle: Klucel (hydroxypropylcellulose) (HPC)
[5] = dose: 100.0 mg/kg/injection, schedule: Q01DX005 (ip), vehicle: Klucel (hydroxypropylcellulose) (HPC)
[6] = dose: 200.0 mg/kg/injection, schedule: Q01DX005 (ip), vehicle: Klucel (hydroxypropylcellulose) (HPC)
[7] = dose: 50.0 mg/kg/injection, schedule: Q01DX005 (ip), vehicle: saline
[8] = dose: 100.0 mg/kg/injection, schedule: Q01DX005 (ip), vehicle: saline
[9] = dose: 200.0 mg/kg/injection, schedule: Q01DX005 (ip), vehicle: saline
[10] = dose: 25.0 mg/kg/injection, schedule: Q01DX005 (ip), vehicle: Klucel (hydroxypropylcellulose) (HPC)
[11] = dose: 100.0 mg/kg/injection, schedule: Q01DX009 (ip), vehicle: Klucel (hydroxypropylcellulose) (HPC)
[12] = dose: 200.0 mg/kg/injection, schedule: Q01DX009 (ip), vehicle: Klucel (hydroxypropylcellulose) (HPC)
[13] = dose: 25.0 mg/kg/injection, schedule: Q01DX009 (ip), vehicle: Klucel (hydroxypropylcellulose) (HPC)
[14] = dose: 50.0 mg/kg/injection, schedule: Q01DX009 (ip), vehicle: Klucel (hydroxypropylcellulose) (HPC)

Measured: T/C

O=C(/C=C/c1ccc(Cl)cc1Cl)c1ccc(Cl)cc1
inactive: dose: 100.0 mg/kg/injection, schedule: Q04DX003 (ip), vehicle: saline with Tween-80 100 % of control | dose: 200.0 mg/kg/injection, schedule: Q04DX003 (ip), vehicle: saline with Tween-80 95 % of control | dose: 400.0 mg/kg/injection, schedule: Q04DX003 (ip), vehicle: saline with Tween-80 90 % of control

CNC(=O)OCc1c(COC(=O)NC)c2n(c1-c1ccc(Cl)c(Cl)c1)CCS2(=O)=O
inactive: dose: 25.0 mg/kg/injection, schedule: Q01DX005 (ip), vehicle: saline with Tween-80 108 % of control | [1] 92 % of control | [2] 88 % of control | [3] 92 % of control

O=C(O)c1nn(-c2ccccc2-c2n[nH]c(=O)[nH]c2=O)c(=O)[nH]c1=O
inactive: [1] 101 % of control | [2] 90 % of control | [3] 95 % of control

COc1ccc(CCN(CCC#N)C(=O)C(Cl)Cl)cc1
inactive: [4] 97 % of control | [5] 97 % of control | [6] 99 % of control

CC(C)(O)[C@@H]1CC(=O)[C@]2(C)[C@H](CC[C@@]3(C)C(c4ccoc4)OC(=O)[C@H]4O[C@]432)[C@@]1(C)/C=C/C(=O)O (some centres undefined)
inactive: dose: 0.75 mg/kg/injection, schedule: Q01DX009 (ip), vehicle: saline + alcohol 98 % of control | dose: 1.5 mg/kg/injection, schedule: Q01DX009 (ip), vehicle: saline + alcohol 100 % of control | dose: 3.0 mg/kg/injection, schedule: Q01DX009 (ip), vehicle: saline + alcohol 97 % of control | dose: 6.0 mg/kg/injection, schedule: Q01DX009 (ip), vehicle: saline + alcohol 99 % of control

ClCC(Br)CBr (centres undefined)
inactive: dose: 37.5 mg/kg/injection, schedule: Q01DX009 (ip), vehicle: saline with Tween-80 104 % of control | dose: 37.5 mg/kg/injection, schedule: Q04DX003 (ip), vehicle: saline with Tween-80 100 % of control | dose: 50.0 mg/kg/injection, schedule: Q01DX009 (ip), vehicle: saline sonified 105 % of control | dose: 75.0 mg/kg/injection, schedule: Q04DX003 (ip), vehicle: saline with Tween-80 90 % of control | dose: 150.0 mg/kg/injection, schedule: Q01DX009 (ip), vehicle: saline with Tween-80 104 % of control | dose: 150.0 mg/kg/injection, schedule: Q04DX003 (ip), vehicle: saline with Tween-80 95 % of control

O=C(O)CCCCSCCCCCCSCCCCC(=O)O
inactive: [4] 106 % of control | [5] 105 % of control | [6] 107 % of control

Oc1ccc(/C=C/c2cc(O)cc(O)c2)cc1
inactive: dose: 18.5 mg/kg/injection, schedule: Q01DX009 (ip), vehicle: Klucel (hydroxypropylcellulose) (HPC) 101 % of control | dose: 37.0 mg/kg/injection, schedule: Q01DX009 (ip), vehicle: Klucel (hydroxypropylcellulose) (HPC) 100 % of control | dose: 74.0 mg/kg/injection, schedule: Q01DX009 (ip), vehicle: Klucel (hydroxypropylcellulose) (HPC) 93 % of control

O=C1CC[C@@H](NC(=O)Cc2ccccc2)C(=O)N1
inactive: dose: 7.5 mg/kg/injection, schedule: Q01DX005 (ip), vehicle: saline with Tween-80 103 % of control | dose: 15.0 mg/kg/injection, schedule: Q01DX005 (ip), vehicle: saline with Tween-80 97 % of control | dose: 30.0 mg/kg/injection, schedule: Q01DX005 (ip), vehicle: saline with Tween-80 98 % of control and 101 % of control | dose: 31.25 mg/kg/injection, schedule: Q01DX005 (ip), vehicle: saline with Tween-80 102 % of control | dose: 60.0 mg/kg/injection, schedule: Q01DX005 (ip), vehicle: saline with Tween-80 94 % of control and 96 % of control | dose: 62.5 mg/kg/injection, schedule: Q01DX005 (ip), vehicle: saline with Tween-80 101 % of control | dose: 120.0 mg/kg/injection, schedule: Q01DX005 (ip), vehicle: saline with Tween-80 88 % of control | dose: 125.0 mg/kg/injection, schedule: Q01DX005 (ip), vehicle: saline with Tween-80 99 % of control and 93 % of control | dose: 250.0 mg/kg/injection, schedule: Q01DX005 (ip), vehicle: saline with Tween-80 90 % of control | dose: 500.0 mg/kg/injection, schedule: Q01DX005 (ip), vehicle: saline with Tween-80 89 % of control

CCc1nc(N)nc(N)c1-c1ccc(N2CCNCC2)cc1
inactive: [4] 96 % of control | [5] 95 % of control | [6] 101 % of control

O=C1CCCc2ccc([N+](=O)[O-])cc21
inactive: dose: 25.0 mg/kg/injection, schedule: Q01DX009 (ip), vehicle: suspension in saline 98 % of control | dose: 50.0 mg/kg/injection, schedule: Q01DX009 (ip), vehicle: suspension in saline 98 % of control | dose: 100.0 mg/kg/injection, schedule: Q01DX009 (ip), vehicle: suspension in saline 93 % of control | dose: 200.0 mg/kg/injection, schedule: Q01DX009 (ip), vehicle: suspension in saline 93 % of control

O=S(=O)(O)C1CC(S(=O)(=O)O)NC(S(=O)(=O)O)C1 (centres undefined)
inactive: [7] 99 % of control | [8] 98 % of control | [9] 94 % of control

O=C1c2ccccc2CC1CS(=O)(=O)CC1Cc2ccccc2C1=O (centres undefined)
inactive: dose: 100.0 mg/kg/injection, schedule: Q04DX002 (ip), vehicle: saline 100 % of control | dose: 200.0 mg/kg/injection, schedule: Q04DX002 (ip), vehicle: saline 100 % of control | dose: 400.0 mg/kg/injection, schedule: Q04DX002 (ip), vehicle: saline 91 % of control and 96 % of control

O=C(Cc1ccccc1)N1CCc2cc3c(cc2/C1=C/c1cc2c(cc1Br)OCO2)OCO3
inactive: dose: 12.5 mg/kg/injection, schedule: Q01DX001 (ip), vehicle: saline + alcohol 100 % of control | dose: 25.0 mg/kg/injection, schedule: Q01DX001 (ip), vehicle: saline + alcohol 99 % of control | dose: 50.0 mg/kg/injection, schedule: Q01DX001 (ip), vehicle: saline + alcohol 100 % of control

CCCCOC(=O)CCC(CC(=O)OCCCC)C(=O)OCCCC (centres undefined)
inactive: [7] 103 % of control | [8] 103 % of control | [9] 105 % of control

CCOP(=O)(CSc1ccccc1)NC1CCCCC1 (centres undefined)
inactive: [10] 94 % of control | [4] 94 % of control | [5] 88 % of control

COC(=O)Cn1/c(=N\N=C(/C)c2ccc(OC)cc2)sc2ccccc21
inactive: dose: 100.0 mg/kg/injection, schedule: Q01DX001 (ip), vehicle: saline with Tween-80 101 % of control | dose: 200.0 mg/kg/injection, schedule: Q01DX001 (ip), vehicle: saline with Tween-80 117 % of control | dose: 400.0 mg/kg/injection, schedule: Q01DX001 (ip), vehicle: saline with Tween-80 92 % of control

Cn1cnc2cc(Cl)c([N+](=O)[O-])cc2c1=O
inactive: dose: 100.0 mg/kg/injection, schedule: Q04DX002 (ip), vehicle: Klucel (hydroxypropylcellulose) (HPC) 102 % of control | dose: 200.0 mg/kg/injection, schedule: Q04DX002 (ip), vehicle: Klucel (hydroxypropylcellulose) (HPC) 110 % of control | dose: 400.0 mg/kg/injection, schedule: Q04DX002 (ip), vehicle: Klucel (hydroxypropylcellulose) (HPC) 102 % of control

O=c1oc(-c2cccc(C(Cl)Cl)c2)ns1
inactive: [11] 112 % of control | [12] 107 % of control | dose: 400.0 mg/kg/injection, schedule: Q01DX009 (ip), vehicle: Klucel (hydroxypropylcellulose) (HPC) 105 % of control

COC1C(OC(N)=O)C(O)C(Oc2ccc3c(O)c(NC(=O)c4ccc(O)c(CC=C(C)C)c4)c(=O)oc3c2C)OC1(C)C (centres undefined)
inactive: [13] 100 % of control | [4] 109 % of control | [14] 95 % of control | [5] 106 % of control | [11] 100 % of control | [6] 109 % of control | [12] 103 % of control

CC1=C(C)CC2(CC1)C(=O)C1(CCC(C)=C(C)C1)C2=O (centres undefined)
inactive: dose: 50.0 mg/kg/injection, schedule: Q01DX009 (ip), vehicle: saline with Tween-80 93 % of control | dose: 100.0 mg/kg/injection, schedule: Q01DX009 (ip), vehicle: saline with Tween-80 90 % of control | dose: 200.0 mg/kg/injection, schedule: Q01DX009 (ip), vehicle: saline with Tween-80 99 % of control

CNC(=O)Nc1ccccc1C(=O)NN
inactive: [13] 100 % of control | [14] 109 % of control | [11] 105 % of control | [12] 96 % of control

CC1=NN(C(C)(C)C)[Si](C)(C)C1
inactive: [10] 96 % of control | [4] 93 % of control | [5] 97 % of control

C(=C\c1cc2cc(C3=NCCN3)ccc2[nH]1)/c1ccc(C2=NCCN2)cc1
inactive: dose: 6.25 mg/kg/injection, schedule: Q04DX003 (ip), vehicle: saline 107 % of control and 108 % of control | dose: 12.5 mg/kg/injection, schedule: Q04DX003 (ip), vehicle: saline 117 % of control and 119 % of control
